{"source": "patent US8822468B2", "about": "(Novartis AG, priority 2008, dated 2014)"}
{"target": "T1, cMET receptor tyrosine kinase (GST-cMET (969-1390)) (Homo sapiens, UniProt P08581)", "T1 construct": "made in house", "T1 sequence (P08581 969-1390)": "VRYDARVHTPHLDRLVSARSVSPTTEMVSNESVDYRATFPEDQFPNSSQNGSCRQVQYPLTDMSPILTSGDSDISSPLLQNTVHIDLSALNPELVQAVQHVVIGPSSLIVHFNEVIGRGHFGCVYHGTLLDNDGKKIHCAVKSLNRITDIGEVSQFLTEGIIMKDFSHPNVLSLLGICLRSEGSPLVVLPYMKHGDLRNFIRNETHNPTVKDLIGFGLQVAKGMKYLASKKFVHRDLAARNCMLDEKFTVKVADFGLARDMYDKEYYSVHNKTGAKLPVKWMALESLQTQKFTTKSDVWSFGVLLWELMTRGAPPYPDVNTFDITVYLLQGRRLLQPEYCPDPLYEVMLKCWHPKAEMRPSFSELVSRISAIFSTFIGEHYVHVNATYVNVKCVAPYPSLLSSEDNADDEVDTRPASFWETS", "experiment": "EPK cMET profiling assay (LanthaScreen TR-FRET antibody based kinase phosphorylation assay)", "assay_type": "biochemical", "conditions": "purified recombinant GST-cMET (969-1390), 2 μM ATP, 50 nM Fluorescein-PolyEAY, 60 minutes at room temperature; read-out: c-Met IC50", "method": "A number of compounds of the present invention were assayed in an antibody based kinase phosphorylation assay as follows.\nEPK cMET Profiling Assay:\nThe EPK kinase assay for cMET receptor tyrosine kinase was developed, using the purified recombinant GST-fusion protein, containing the cytoplasmic domain of the enzyme. GST-cMET (969-1390) was purified by affinity chromatography.\nThe kinase assay is based on the LanthaScreen™ technology. LanthaScreen™ is the detection of Time-Resolved Fluorescence Resonance Energy Transfer (TR-FRET) using lanthanide chelates to measure interactions between various binding partners. In a TR-FRET kinase assay, a long-lifetime lanthanide donor species is conjugated to an antibody that specifically binds to a phosphorylated product of a kinase reaction that is labeled with a suitable acceptor fluorophore. This antibody-mediated interaction brings the lanthanide donor and the acceptor into proximity such that resonance energy transfer can take place, resulting in a detectible increase in the FRET signal.\nThe kinase reactions were performed in 384 well microtiter plates in a total reaction volume of 9.05 μL. The assay plates were prepared with 0.05 μL per well of test compound in the appropriate test concentration, as described under “preparation of compound dilutions”. The reactions were started by combining 4.5 μL of ATP solution with 4.5 μL of enzyme-substrate mix (consisting of kinase and substrate). The final concentrations in the kinase reactions were 35 mM Tris/HCl, 1 mM DTT, 0.025% Tween20, 10 μM sodium orthovanadate, 0.25% BSA, 0.6% DMSO, 10 mM MgCl2, 3 mM MnCl2, 2 μM ATP, 50 nM Fluorescein-PolyEAY, and 0.3 nM enzyme.\nThe reactions were incubated for 60 minutes at room temperature and stopped by adding 4.5 μL of stop buffer (50 mM EDTA, 0.04% NP40, 20 mM Tris/HCl).\nSubsequently 4.5 μL of detection mix (50 mM Tris/HCl, 2 mM DTT, 0.05% Tween20, 20 μM sodium orthovanadate, 1% BSA, 1.72 μg/ml Tb-PY20 antibody) were added to the stopped reactions. After 30 minutes incubation at room temperature, the plates were measured in a BMG Pherastar fluorescence reader. The effect of compound on the enzymatic activity was in all assays obtained from the linear progress curves and determined from one reading (end point measurement).\nTest compounds were dissolved in DMSO (10 mM) and transferred into 1.4 mL flat bottom or V-shaped Matrix tubes carrying a unique 2D matrix. The stock solutions were stored at −20° C. if not used immediately. For the test procedure the vials were defrosted and identified by a scanner whereby a working sheet was generated that guided the subsequent working steps.\nCompound dilutions were made in 96 well plates. This format enabled the assay of maximally 40 individual test compounds at 8 concentrations (single points) including 4 reference compounds. The dilution protocol included the production of “pre-dilution plates”, “master plates” and “assay plates”.\nPre-dilution plates: 96 polypropylene well plates were used as pre-dilution plates. A total of 4 pre-dilution plates were prepared including 10 test compounds each on the plate positions A1-A10, one standard compound at A11 and one DMSO control at A12. All dilution steps were done on a HamiltonSTAR robot.\nMaster plates: 100 μL of individual compound dilutions including standard compound and controls of the 4 “pre-dilution plates” were transferred into a 384 “master plate” including the following concentrations 1,820, […], 182, 54.6, 18.2, 5.46, 1.82 and 0.546 μM, respectively in 90% of DMSO.\nAssay plates: Identical “assay plates” were then prepared by pipetting 50 nL each of compound dilutions of the “master plates” into 384-well “assay plates” by means of a HummingBird 384-channel dispenser. These plates were used directly for the assay which was performed in a total volume of 9.05 μL. This led to a final compound concentration of 10, 3.0, 1.0, 0.3, 0.1, 0.03, 0.01 and 0.003 μM and a final DMSO concentration of 0.5% in the assay.", "units": {"IC50": "nM"}}
{"smiles": "Cn1cc(-c2ccc3ncc(C(O)c4ccc5ncccc5c4)n3n2)cn1", "note": "(racemic) [Example 1, (rac)-[6-(1-Methyl-1H-pyrazol-4-yl)-imidazo[1,2-b]pyridazin-3-yl]-quinolin-6-yl-methanol]", "IC50": 140}
{"smiles": "COc1ccc(C(O)c2cnc3ccc(-c4cnn(C)c4)nn23)cc1", "note": "(racemic) [Example 3, (rac)-(4-Methoxy-phenyl)-[6-(1-methyl-1H-pyrazol-4-yl)-imidazo[1,2-b]pyridazin-3-yl]-methanol]", "IC50": 3950}
{"smiles": "Cn1cc(-c2ccc3ncc(C(O)c4ccc5nccn5c4)n3n2)cn1", "note": "(racemic) [Example 9, (rac)-Imidazo[1,2-a]pyridin-6-yl-[6-(1-methyl-1H-pyrazol-4-yl)-imidazo[1,2-b]pyridazin-3-yl]-methanol]", "IC50": 170}
{"smiles": "Cn1cc(-c2ccc3ncc(C(O)c4ccc5nccnc5c4)n3n2)cn1", "note": "(racemic) [Example 11, (rac)-[6-(1-Methyl-1H-pyrazol-4-yl)-imidazo[1,2-b]pyridazin-3-yl]-quinoxalin-6-yl-methanol]", "IC50": 910}
{"smiles": "CC(C)CNc1ccc2ncc(C(O)c3ccc4ncccc4c3)n2n1", "note": "(racemic) [Example 77, (rac)-(6-Isobutylamino-imidazo[1,2-b]pyridazin-3-yl)-quinolin-6-yl-methanol]", "IC50": 225}
{"smiles": "CN(C(=O)OC(C)(C)C)C1CCN(c2ccc3ncc(Cc4ccc5ncccc5c4)n3n2)C1", "note": "(racemic) [Example 87, Methyl-[1-(3-quinolin-6-ylmethyl-imidazo[1,2-b]pyridazin-6-yl)-pyrrolidin-3-yl]-carbamic acid tert-butyl ester]", "IC50": 370}
{"smiles": "CNC1CCN(c2ccc3ncc(Cc4ccc5ncccc5c4)n3n2)C1", "note": "(racemic) [Example 119, (rac)-Methyl-[1-(3-quinolin-6-ylmethyl-imidazo[1,2-b]pyridazin-6-yl)-pyrrolidin-3-yl]-amine]", "IC50": 42}
{"smiles": "CC(c1ccc2c(c1)CCCN2)c1cnc2ccc(-c3cnn(C)c3)nn12", "note": "(racemic) [Example 156, (rac)-6-{1-[6-(1-Methyl-1H-pyrazol-4-yl)-imidazo[1,2-b]pyridazin-3-yl]-ethyl}-1,2,3,4-tetrahydroquinoline]", "IC50": 190}
{"smiles": "CC(c1ccc2ncccc2c1)c1cnc2ccc(-c3cnn(C)c3)nn12", "note": "(racemic) [Example 157, (rac)-6-{1-[6-(1-Methyl-1H-pyrazol-4-yl)-imidazo[1,2-b]pyridazin-3-yl]-ethyl}-quinoline]", "IC50": 7}
{"smiles": "CC(c1cc2cn[nH]c2cc1F)c1cnc2ccc(-c3cnn(C)c3)nn12", "note": "(racemic) [Example 164, (rac)-3-[1-(6-Fluoro-1H-indazol-5-yl)-ethyl]-6-(1-methyl-1H-pyrazol-4-yl)-imidazo[1,2-b]pyridazine]", "IC50": 54}
{"smiles": "Cn1cc(-c2ccc3ncc(C(C)(O)c4cc5cccnc5cc4F)n3n2)cn1", "note": "(racemic) [Example 174, (rac)-1-(7-Fluoro-quinolin-6-yl)-1-[6-(1-methyl-1H-pyrazol-4-yl)-imidazo[1,2-b]pyridazin-3-yl]-ethanol]", "IC50": 120}
{"smiles": "CC(c1ccc2ncccc2c1)c1cnc2ccc(-c3cnn(CCO)c3)nn12", "note": "(racemic) [Example 177, (rac)-2-{4-[3-(1-Quinolin-6-yl-ethyl)-imidazo[1,2-b]pyridazin-6-yl]-pyrazol-1-yl}-ethanol]", "IC50": 20}
{"smiles": "CC(c1c(F)cc2ncccc2c1F)c1cnc2ccc(-c3cnn(CCO)c3)nn12", "note": "(racemic) [Example 182, (rac)-2-(4-{3-[1-(5,7-Difluoro-quinolin-6-yl)-ethyl]-imidazo[1,2-b]pyridazin-6-yl}-pyrazol-1-yl)ethanol]", "IC50": 3}
{"smiles": "CC(c1ccc2ncn(C)c2c1)c1cnc2ccc(-c3cnn(CCO)c3)nn12", "note": "(racemic) [Example 185, (rac)-2-(4-{3-[1-(3-Methyl-3H-benzoimidazol-5-yl)-ethyl]-imidazo[1,2-b]pyridazin-6-yl}-pyrazol-1-yl)-ethanol]", "IC50": 56}
{"smiles": "CC(c1ccc2ncccc2c1Cl)c1cnc2ccc(-c3cnn(CCO)c3)nn12", "note": "(racemic) [Example 188, (rac)-2-(4-{3-[1-(5-Chloro-quinolin-6-yl)-ethyl]-imidazo[1,2-b]pyridazin-6-yl}-pyrazol-1-yl)ethanol]", "IC50": 5.6}
{"smiles": "CC(c1ccc2nccn2c1)c1cnc2ccc(-c3cnn(CCO)c3)nn12", "note": "(racemic) [Example 189, (rac)-2-{4-[3-(1-Imidazo[1,2-a]pyridin-6-yl-ethyl)-imidazo[1,2-b]pyridazin-6-yl]-pyrazol-1-yl}-ethanol]", "IC50": 95}
{"smiles": "CC(c1ccc2n[nH]cc2c1)c1cnc2ccc(-c3cnn(CCO)c3)nn12", "note": "(racemic) [Example 190, (rac)-2-(4-{3-[1-(2H-Indazol-5-yl)-ethyl]-imidazo[1,2-b]pyridazin-6-yl}-pyrazol-1-yl)-ethanol]", "IC50": 56}
{"smiles": "CC(c1c(F)cc2ncccc2c1F)c1cnc2ccc(-c3cnn(C)c3)nn12", "note": "(racemic) [Example 191, (rac)-5,7-Difluoro-6-{1-[6-(1-methyl-1H-pyrazol-4-yl)-imidazo[1,2-b]pyridazin-3-yl]-ethyl}-quinoline]", "IC50": "< 3"}
{"smiles": "CC(c1ccc2ncn(C)c2c1)c1cnc2ccc(-c3cnn(C)c3)nn12", "note": "(racemic) [Example 206, (rac)-3-[1-(3-Methyl-3H-benzoimidazol-5-yl)-ethyl]-6-(1-methyl-1H-pyrazol-4-yl)-imidazo[1,2-b]pyridazine]", "IC50": 31}
{"smiles": "CC(c1ccc2ncn(CCN3CCCC3)c2c1)c1cnc2ccc(-c3cnn(C)c3)nn12", "note": "(racemic) [Example 207, (rac)-6-(1-Methyl-1H-pyrazol-4-yl)-3-{1-[3-(2-pyrrolidin-1-yl-ethyl)-3H-benzoimidazol-5-yl]-ethyl}-imidazo[1,2-b]pyridazine]", "IC50": 310}
{"smiles": "CC(c1ccc(O)cc1)c1cnc2ccc(-c3cnn(CCO)c3)nn12", "note": "(racemic) [Example 221, (rac)-4-(1-{6-[1-(2-Hydroxy-ethyl)-1H-pyrazol-4-yl]-imidazo[1,2-b]pyridazin-3-yl}-ethyl)-phenol]", "IC50": 240}
{"smiles": "CC(c1ccc(O)cc1)c1cnc2ccc(-c3cnn(C)c3)nn12", "note": "(racemic) [Example 222, (rac)-4-{1-[6-(1-Methyl-1H-pyrazol-4-yl)-imidazo[1,2-b]pyridazin-3-yl]-ethyl}-phenol]", "IC50": 250}
{"smiles": "CC(c1ccc2ncccc2c1Cl)c1cnc2ccc(-c3cnn(C4CCNCC4)c3)nn12", "note": "(racemic) [Example 223, (rac)-5-Chloro-6-{1-[6-(1-piperidin-4-yl-1H-pyrazol-4-yl)-imidazo[1,2-b]pyridazin-3-yl]-ethyl}-quinoline]", "IC50": 33}
{"smiles": "CC(c1ccc2ncccc2c1Cl)c1cnc2ccc(-c3cnn(C)c3)nn12", "note": "(racemic) [Example 225, (rac)-5-Chloro-6-{1-[6-(1-methyl-1H-pyrazol-4-yl)-imidazo[1,2-b]pyridazin-3-yl]-ethyl}-quinoline]", "IC50": 25}
{"smiles": "Cn1cc(-c2ccc3ncc(C(O)c4ccc5ncn(C)c5c4)n3n2)cn1", "note": "(racemic) [Example 229, (rac)-(3-Methyl-3H-benzoimidazol-5-yl)-[6-(1-methyl-1H-pyrazol-4-yl)-imidazo[1,2-b]pyridazin-3-yl]-methanol]", "IC50": 520}
{"smiles": "Cn1cc(-c2ccc3ncc(C(O)c4ccc5ncccc5c4F)n3n2)cn1", "note": "(racemic) [Example 247, (rac)-(5-Fluoro-quinolin-6-yl)-[6-(1-methyl-1H-pyrazol-4-yl)-imidazo[1,2-b]pyridazin-3-yl]-methanol]", "IC50": 66}
